Patent US20250000814A1 (DONG-A ST CO., LTD., priority 2021, published 2025)
Counter-ions that a name gives are not always drawn.

Assays:
[1] = Solubility evaluation for the solubilizer propylene glycol monocaprylate; details: for Propylene glycol monocaprylate solubility: 25° C., 24 hours, 50 mg as memantine free base added to 1 mL
Method: The resulting mixture was treated in a shaking constant temperature bath at 25° C. for 24 hours.
<Liquid Chromatography Conditions>

[2] = cited from earlier work
[3] = Oil phase skin permeability screening, Franz diffusion cell; type: in vitro ADME; details: 200 ul of 50 mg/mL salt in propylene glycol monocaprylate, human cadaver skin; for Skin penetration rate: 7 days
Method: A pH 7.4 phosphate buffer containing 10% ethanol and 0.02% sodium azide as an aqueous solution was added to the receptor chamber of the Franz diffusion cell, and with the temperature maintained at 32±0.5° C., it was rotated at 600 rpm and stirred.

| Compound | Propylene glycol monocaprylate solubility [1] [µg/mL] | also measured |
| --- | --- | --- |
| CC12CC3CC(C)(C1)CC(N)(C3)C2.CC12CC3CC(C)(C1)CC(N)(C3)C2.O=C(O)CCCCCCC(=O)O [hemi-suberate, Memantine Hemi-Suberate] | <5000 | – |
| Memantine Hemi-Fumarate | <5000 | – |
| CC12CC3CC(C)(C1)CC(N)(C3)C2.CC12CC3CC(C)(C1)CC(N)(C3)C2.O=C(O)CCCCCC(=O)O [hemi-pimelate, Memantine Hemi-Pimelate] | <5000 | – |
| CC12CC3CC(C)(C1)CC(N)(C3)C2 [free base, Memantine free base] | – | log P, the partition coefficient [2]: 3.28 |
| Memantine Hemi-Naphthalene Disulfonate | <5000 | – |
| Memantine Hemi-Malate | <5000 | – |
| Memantine Hemi-Maleate | <5000 | – |
| CC(=O)CCC(=O)O.CC12CC3CC(C)(C1)CC(N)(C3)C2 [levulinate, Memantine Levulinate, reference compound] | – | Skin permeability for 7 days [3]: 3661 ug/cm2; Skin penetration rate [3]: 22 ug/cm2/hr |
| CC12CC3CC(C)(C1)CC(N)(C3)C2 [hydrochloride, Memantine hydrochloride, reference compound] | – | solubility at 24 h ([1]; 25 °C, oil or lipid, thermodynamic from solid): < 5000 µg/mL |
| Memantine Myristate | – | Skin permeability for 7 days [3]: 1083 ug/cm2; Skin penetration rate [3]: 6 ug/cm2/hr |
